Assay results reported in the NIST ThermoML archive (doi:10.1016/j.tca.2006.04.016).
Numbers after ± are expanded uncertainties.

Details: 101.33 kPa, Liquid, Vibrating tube method

For `CN(C)CCCN` [N,N-dimethyl-1,3-propanediamine], the mass density (278.15 K) was 830.37 ± 0.44 kg/m3, the mass density (278.65 K) was 829.93 ± 0.44 kg/m3 and the mass density (279.15 K) was 829.49 ± 0.44 kg/m3. It also gave a mass density (279.65 K) of 829.05 ± 0.44 kg/m3, a mass density (280.15 K) of 828.61 ± 0.44 kg/m3 and a mass density (280.65 K) of 828.17 ± 0.44 kg/m3. The mass density (281.15 K) was 827.73 ± 0.44 kg/m3, the mass density (281.65 K) was 827.29 ± 0.44 kg/m3 and the mass density (282.15 K) was 826.84 ± 0.44 kg/m3. It also gave a mass density (282.65 K) of 826.4 ± 0.44 kg/m3, a mass density (283.15 K) of 825.96 ± 0.44 kg/m3 and a mass density (283.65 K) of 825.52 ± 0.44 kg/m3. It also gave a mass density (284.15 K) of 825.08 ± 0.44 kg/m3, a mass density (284.65 K) of 824.64 ± 0.44 kg/m3 and a mass density (285.15 K) of 824.2 ± 0.44 kg/m3. For the same compound, the mass density (285.65 K) was 823.76 ± 0.44 kg/m3, the mass density (286.15 K) was 823.32 ± 0.44 kg/m3 and the mass density (286.65 K) was 822.88 ± 0.44 kg/m3. For the same compound, the mass density (287.15 K) was 822.44 ± 0.44 kg/m3, the mass density (287.65 K) was 822 ± 0.44 kg/m3 and the mass density (288.15 K) was 821.56 ± 0.44 kg/m3. It also gave a mass density (288.65 K) of 821.12 ± 0.44 kg/m3, a mass density (289.15 K) of 820.67 ± 0.44 kg/m3 and a mass density (289.65 K) of 820.23 ± 0.44 kg/m3. For the same compound, the mass density (290.15 K) was 819.79 ± 0.44 kg/m3, the mass density (290.65 K) was 819.35 ± 0.44 kg/m3 and the mass density (291.15 K) was 818.91 ± 0.44 kg/m3. It also gave a mass density (291.65 K) of 818.47 ± 0.44 kg/m3, a mass density (292.15 K) of 818.03 ± 0.44 kg/m3 and a mass density (292.65 K) of 817.58 ± 0.44 kg/m3. It also gave a mass density (293.15 K) of 817.14 ± 0.44 kg/m3, a mass density (293.65 K) of 816.7 ± 0.44 kg/m3 and a mass density (294.15 K) of 816.26 ± 0.44 kg/m3. The mass density (294.65 K) was 815.82 ± 0.44 kg/m3, the mass density (295.15 K) was 815.37 ± 0.44 kg/m3 and the mass density (295.65 K) was 814.93 ± 0.43 kg/m3. The mass density (296.15 K) was 814.49 ± 0.43 kg/m3, the mass density (296.65 K) was 814.05 ± 0.43 kg/m3 and the mass density (297.15 K) was 813.6 ± 0.43 kg/m3. The mass density (297.65 K) was 813.16 ± 0.43 kg/m3, the mass density (298.15 K) was 812.72 ± 0.43 kg/m3 and the mass density (298.65 K) was 812.27 ± 0.43 kg/m3. For the same compound, the mass density (299.15 K) was 811.83 ± 0.43 kg/m3, the mass density (299.65 K) was 811.39 ± 0.43 kg/m3 and the mass density (300.15 K) was 810.94 ± 0.43 kg/m3. For the same compound, the mass density (300.65 K) was 810.5 ± 0.43 kg/m3, the mass density (301.15 K) was 810.06 ± 0.43 kg/m3 and the mass density (301.65 K) was 809.61 ± 0.43 kg/m3. The mass density (302.15 K) was 809.17 ± 0.43 kg/m3, the mass density (302.65 K) was 808.72 ± 0.43 kg/m3 and the mass density (303.15 K) was 808.28 ± 0.43 kg/m3. It also gave a mass density (303.65 K) of 807.84 ± 0.43 kg/m3, a mass density (304.15 K) of 807.39 ± 0.43 kg/m3 and a mass density (304.65 K) of 806.95 ± 0.43 kg/m3. For the same compound, the mass density (305.15 K) was 806.5 ± 0.43 kg/m3, the mass density (305.65 K) was 806.06 ± 0.43 kg/m3 and the mass density (306.15 K) was 805.61 ± 0.43 kg/m3. It also gave a mass density (306.65 K) of 805.17 ± 0.43 kg/m3, a mass density (307.15 K) of 804.72 ± 0.43 kg/m3 and a mass density (307.65 K) of 804.28 ± 0.43 kg/m3. It also gave a mass density (308.15 K) of 803.83 ± 0.43 kg/m3, a mass density (308.65 K) of 803.39 ± 0.43 kg/m3 and a mass density (309.15 K) of 802.94 ± 0.43 kg/m3. The mass density (309.65 K) was 802.5 ± 0.43 kg/m3, the mass density (310.15 K) was 802.05 ± 0.43 kg/m3 and the mass density (310.65 K) was 801.61 ± 0.43 kg/m3. It also gave a mass density (311.15 K) of 801.16 ± 0.43 kg/m3, a mass density (311.65 K) of 800.72 ± 0.43 kg/m3 and a mass density (312.15 K) of 800.27 ± 0.43 kg/m3. For the same compound, the mass density (312.65 K) was 799.82 ± 0.43 kg/m3, the mass density (313.15 K) was 799.38 ± 0.43 kg/m3 and the mass density (313.65 K) was 798.93 ± 0.43 kg/m3. The mass density (314.15 K) was 798.48 ± 0.43 kg/m3, the mass density (314.65 K) was 798.04 ± 0.43 kg/m3 and the mass density (315.15 K) was 797.59 ± 0.43 kg/m3. The mass density (315.65 K) was 797.14 ± 0.43 kg/m3, the mass density (316.15 K) was 796.69 ± 0.43 kg/m3 and the mass density (316.65 K) was 796.25 ± 0.43 kg/m3. The mass density (317.15 K) was 795.8 ± 0.43 kg/m3, the mass density (317.65 K) was 795.35 ± 0.43 kg/m3 and the mass density (318.15 K) was 794.9 ± 0.43 kg/m3. The mass density (318.65 K) was 794.45 ± 0.43 kg/m3, the mass density (319.15 K) was 794.01 ± 0.43 kg/m3 and the mass density (319.65 K) was 793.56 ± 0.43 kg/m3. For the same compound, the mass density (320.15 K) was 793.11 ± 0.43 kg/m3, the mass density (320.65 K) was 792.66 ± 0.43 kg/m3 and the mass density (321.15 K) was 792.21 ± 0.43 kg/m3. It also gave a mass density (321.65 K) of 791.76 ± 0.43 kg/m3, a mass density (322.15 K) of 791.31 ± 0.43 kg/m3 and a mass density (322.65 K) of 790.86 ± 0.43 kg/m3. It also gave a mass density (323.15 K) of 790.41 ± 0.43 kg/m3, a mass density (323.65 K) of 789.96 ± 0.43 kg/m3 and a mass density (324.15 K) of 789.52 ± 0.43 kg/m3. For the same compound, the mass density (324.65 K) was 789.06 ± 0.43 kg/m3, the mass density (325.15 K) was 788.62 ± 0.43 kg/m3 and the mass density (325.65 K) was 788.17 ± 0.43 kg/m3. The mass density (326.15 K) was 787.72 ± 0.43 kg/m3, the mass density (326.65 K) was 787.26 ± 0.43 kg/m3 and the mass density (327.15 K) was 786.81 ± 0.43 kg/m3. For the same compound, the mass density (327.65 K) was 786.36 ± 0.43 kg/m3, the mass density (328.15 K) was 785.91 ± 0.43 kg/m3 and the mass density (328.65 K) was 785.46 ± 0.43 kg/m3. It also gave a mass density (329.15 K) of 785.01 ± 0.43 kg/m3, a mass density (329.65 K) of 784.56 ± 0.43 kg/m3 and a mass density (330.15 K) of 784.11 ± 0.43 kg/m3. For the same compound, the mass density (330.65 K) was 783.65 ± 0.43 kg/m3, the mass density (331.15 K) was 783.2 ± 0.43 kg/m3 and the mass density (331.65 K) was 782.75 ± 0.43 kg/m3. For the same compound, the mass density (332.15 K) was 782.3 ± 0.43 kg/m3, the mass density (332.65 K) was 781.84 ± 0.43 kg/m3 and the mass density (333.15 K) was 781.39 ± 0.43 kg/m3. It also gave a mass density (333.65 K) of 780.94 ± 0.43 kg/m3, a mass density (334.15 K) of 780.49 ± 0.43 kg/m3 and a mass density (334.65 K) of 780.03 ± 0.43 kg/m3. It also gave a mass density (335.15 K) of 779.58 ± 0.43 kg/m3, a mass density (335.65 K) of 779.12 ± 0.43 kg/m3 and a mass density (336.15 K) of 778.67 ± 0.42 kg/m3. It also gave a mass density (336.65 K) of 778.22 ± 0.42 kg/m3, a mass density (337.15 K) of 777.76 ± 0.42 kg/m3 and a mass density (337.65 K) of 777.31 ± 0.42 kg/m3. The mass density (338.15 K) was 776.85 ± 0.42 kg/m3, the mass density (338.65 K) was 776.4 ± 0.42 kg/m3 and the mass density (339.15 K) was 775.94 ± 0.42 kg/m3. The mass density (339.65 K) was 775.49 ± 0.42 kg/m3, the mass density (340.15 K) was 775.03 ± 0.42 kg/m3 and the mass density (340.65 K) was 774.57 ± 0.42 kg/m3. It also gave a mass density (341.15 K) of 774.11 ± 0.42 kg/m3, a mass density (341.65 K) of 773.66 ± 0.42 kg/m3 and a mass density (342.15 K) of 773.2 ± 0.42 kg/m3. It also gave a mass density (342.65 K) of 772.74 ± 0.42 kg/m3, a mass density (343.15 K) of 772.29 ± 0.42 kg/m3 and a mass density (343.65 K) of 771.83 ± 0.42 kg/m3. For the same compound, the mass density (344.15 K) was 771.37 ± 0.42 kg/m3, the mass density (344.65 K) was 770.91 ± 0.42 kg/m3 and the mass density (345.15 K) was 770.45 ± 0.42 kg/m3. For the same compound, the mass density (345.65 K) was 769.99 ± 0.42 kg/m3, the mass density (346.15 K) was 769.53 ± 0.42 kg/m3 and the mass density (346.65 K) was 769.08 ± 0.42 kg/m3. For the same compound, the mass density (347.15 K) was 768.62 ± 0.42 kg/m3, the mass density (347.65 K) was 768.16 ± 0.42 kg/m3 and the mass density (348.15 K) was 767.7 ± 0.42 kg/m3. The mass density (348.65 K) was 767.24 ± 0.42 kg/m3, the mass density (349.15 K) was 766.78 ± 0.42 kg/m3 and the mass density (349.65 K) was 766.32 ± 0.42 kg/m3. For the same compound, the mass density (350.15 K) was 765.86 ± 0.42 kg/m3, the mass density (350.65 K) was 765.4 ± 0.42 kg/m3 and the mass density (351.15 K) was 764.94 ± 0.42 kg/m3. For the same compound, the mass density (351.65 K) was 764.48 ± 0.42 kg/m3, the mass density (352.15 K) was 764.02 ± 0.42 kg/m3 and the mass density (352.65 K) was 763.56 ± 0.42 kg/m3. The mass density (353.15 K) was 763.1 ± 0.42 kg/m3, the mass density (353.65 K) was 762.64 ± 0.42 kg/m3 and the mass density (354.15 K) was 762.17 ± 0.42 kg/m3. For the same compound, the mass density (354.65 K) was 761.71 ± 0.42 kg/m3, the mass density (355.15 K) was 761.25 ± 0.42 kg/m3 and the mass density (355.65 K) was 760.79 ± 0.42 kg/m3. For the same compound, the mass density (356.15 K) was 760.33 ± 0.42 kg/m3, the mass density (356.65 K) was 759.86 ± 0.42 kg/m3 and the mass density (357.15 K) was 759.4 ± 0.42 kg/m3. It also gave a mass density (357.65 K) of 758.94 ± 0.42 kg/m3, a mass density (358.15 K) of 758.48 ± 0.42 kg/m3 and a mass density (358.65 K) of 758.01 ± 0.42 kg/m3. The mass density (359.15 K) was 757.55 ± 0.42 kg/m3, the mass density (359.65 K) was 757.08 ± 0.42 kg/m3 and the mass density (360.15 K) was 756.62 ± 0.42 kg/m3. For the same compound, the mass density (360.65 K) was 756.15 ± 0.42 kg/m3, the mass density (361.15 K) was 755.69 ± 0.42 kg/m3 and the mass density (361.65 K) was 755.22 ± 0.42 kg/m3. For the same compound, the mass density (362.15 K) was 754.75 ± 0.42 kg/m3, the mass density (362.65 K) was 754.28 ± 0.42 kg/m3 and the mass density (363.15 K) was 753.82 ± 0.42 kg/m3.
